# Numbers after ± are expanded uncertainties.
# Assay: activity coefficient (dimensionless); of the first substance listed, at infinite dilution; xn = mol fraction of the nth substance listed
# Details: 100 kPa, Liquid, Chromatography, x1 = 0
Structure (SMILES),activity coefficient (313.15 K),activity coefficient (323.15 K),activity coefficient (343.15 K),activity coefficient (363.15 K),activity coefficient (373.15 K)
"Cc1ccccc1C [1,2-dimethylbenzene] + CCCC[N+]1(C)CCCC1.N#CN=C=[N-]",2.69 ± 0.28,2.75 ± 0.29,2.91 ± 0.31,3.1 ± 0.3,3.18 ± 0.33
"Cc1cccc(C)c1 [1,3-dimethylbenzene] + CCCC[N+]1(C)CCCC1.N#CN=C=[N-]",3.36 ± 0.35,3.47 ± 0.36,3.58 ± 0.38,3.74 ± 0.39,3.81 ± 0.4
"Cc1ccc(C)cc1 [1,4-dimethylbenzene] + CCCC[N+]1(C)CCCC1.N#CN=C=[N-]",3.24 ± 0.34,3.24 ± 0.34,3.47 ± 0.36,3.63 ± 0.38,3.73 ± 0.39
"C1COCCO1 [1,4-dioxane] + CCCC[N+]1(C)CCCC1.N#CN=C=[N-]",0.909 ± 0.093,0.962 ± 0.098,1.05 ± 0.11,1.13 ± 0.12,1.17 ± 0.12
C=CCCCCCCCC [1-decene] + CCCC[N+]1(C)CCCC1.N#CN=C=[N-],104 ± 11,98.2 ± 10,89.4 ± 9.4,83.7 ± 8.8,78.7 ± 8.3
C=CCCCCC [1-heptene] + CCCC[N+]1(C)CCCC1.N#CN=C=[N-],31.5 ± 3.3,30.4 ± 3.2,29.2 ± 3.1,27.8 ± 2.9,27.7 ± 2.9
C#CCCCCC [1-heptyne] + CCCC[N+]1(C)CCCC1.N#CN=C=[N-],5.76 ± 0.61,5.95 ± 0.63,6.39 ± 0.67,6.76 ± 0.71,6.92 ± 0.73
C#CCCCC [1-hexyne] + CCCC[N+]1(C)CCCC1.N#CN=C=[N-],3.81 ± 0.4,3.98 ± 0.42,4.32 ± 0.45,4.61 ± 0.48,4.77 ± 0.5
CCC[N+](=O)[O-] [1-nitropropane] + CCCC[N+]1(C)CCCC1.N#CN=C=[N-],0.721 ± 0.075,0.74 ± 0.077,0.789 ± 0.081,0.827 ± 0.085,0.838 ± 0.086
C#CCCCCCC [1-octyne] + CCCC[N+]1(C)CCCC1.N#CN=C=[N-],8.87 ± 0.93,9.03 ± 0.95,9.41 ± 0.99,9.79 ± 1,9.87 ± 1
CCOC(C)(C)C [2-ethoxy-2-methylpropane] + CCCC[N+]1(C)CCCC1.N#CN=C=[N-],17.2 ± 1.8,16.9 ± 1.8,16.9 ± 1.8,16.7 ± 1.8,16.1 ± 1.7
CCC(C)(C)OC [2-methoxy-2-methylbutane] + CCCC[N+]1(C)CCCC1.N#CN=C=[N-],9.56 ± 1,9.39 ± 0.99,9.65 ± 1,9.77 ± 1,9.93 ± 1
COC(C)(C)C [2-methoxy-2-methylpropane] + CCCC[N+]1(C)CCCC1.N#CN=C=[N-],6.25 ± 0.66,6.32 ± 0.66,6.55 ± 0.69,6.92 ± 0.73,7.15 ± 0.75
CC(C)CO [2-methyl-1-propanol] + CCCC[N+]1(C)CCCC1.N#CN=C=[N-],0.872 ± 0.089,0.835 ± 0.086,0.785 ± 0.081,0.786 ± 0.081,0.764 ± 0.079
C=C(C)c1ccccc1 [(1-methylethenyl)benzene] + CCCC[N+]1(C)CCCC1.N#CN=C=[N-],2.2 ± 0.23,2.37 ± 0.25,2.67 ± 0.28,2.89 ± 0.3,3.02 ± 0.32
CC(C)=O [acetone] + CCCC[N+]1(C)CCCC1.N#CN=C=[N-],0.907 ± 0.093,0.91 ± 0.09,0.978 ± 0.099,1.04 ± 0.11,1.06 ± 0.11
CC#N [acetonitrile] + CCCC[N+]1(C)CCCC1.N#CN=C=[N-],0.659 ± 0.069,0.668 ± 0.07,0.693 ± 0.072,0.72 ± 0.08,0.728 ± 0.076
c1ccccc1 [benzene] + CCCC[N+]1(C)CCCC1.N#CN=C=[N-],1.38 ± 0.14,1.4 ± 0.14,1.49 ± 0.15,1.6 ± 0.2,1.62 ± 0.17
CCCCO [butan-1-ol] + CCCC[N+]1(C)CCCC1.N#CN=C=[N-],0.897 ± 0.092,0.873 ± 0.089,0.844 ± 0.087,0.836 ± 0.086,0.814 ± 0.084
CCC(C)O (stereo not given) [butan-2-ol] + CCCC[N+]1(C)CCCC1.N#CN=C=[N-],0.875 ± 0.09,0.888 ± 0.091,0.859 ± 0.088,0.869 ± 0.089,0.881 ± 0.09
CCCC=O [butanal] + CCCC[N+]1(C)CCCC1.N#CN=C=[N-],1.4 ± 0.14,1.46 ± 0.15,1.53 ± 0.16,1.62 ± 0.17,1.67 ± 0.17

Structure (SMILES),activity coefficient (313.15 K),activity coefficient (323.15 K),activity coefficient (343.15 K),activity coefficient (363.15 K),activity coefficient (373.15 K)
C1=CCCCC1 [cyclohexene] + CCCC[N+]1(C)CCCC1.N#CN=C=[N-],9.06 ± 0.95,8.78 ± 0.92,8.65 ± 0.91,8.48 ± 0.89,8.26 ± 0.87
CC(C)OC(C)C [diisopropyl ether] + CCCC[N+]1(C)CCCC1.N#CN=C=[N-],19.4 ± 2,18.8 ± 2,19.1 ± 2,18.6 ± 2,18.3 ± 1.9
CCCOCCC [dipropyl ether] + CCCC[N+]1(C)CCCC1.N#CN=C=[N-],17.9 ± 1.9,17 ± 1.8,16.8 ± 1.8,16.6 ± 1.7,16.6 ± 1.7
CCO [ethanol] + CCCC[N+]1(C)CCCC1.N#CN=C=[N-],0.533 ± 0.058,0.525 ± 0.057,0.52 ± 0.06,0.519 ± 0.057,0.521 ± 0.057
CCOC(C)=O [ethyl acetate] + CCCC[N+]1(C)CCCC1.N#CN=C=[N-],2.35 ± 0.25,2.36 ± 0.25,2.48 ± 0.26,2.57 ± 0.27,2.61 ± 0.27
CCc1ccccc1 [ethylbenzene] + CCCC[N+]1(C)CCCC1.N#CN=C=[N-],3.32 ± 0.35,3.43 ± 0.36,3.52 ± 0.37,3.7 ± 0.4,3.77 ± 0.4
CCCCCCC [heptane] + CCCC[N+]1(C)CCCC1.N#CN=C=[N-],79.1 ± 8.3,74.6 ± 7.9,66.5 ± 7,60.2 ± 6.3,53.6 ± 5.6
C=CCCCC [hex-1-ene] + CCCC[N+]1(C)CCCC1.N#CN=C=[N-],21 ± 2.2,20.3 ± 2.1,19.3 ± 2,18.4 ± 1.9,18.6 ± 2
CO [methanol] + CCCC[N+]1(C)CCCC1.N#CN=C=[N-],0.336 ± 0.042,0.333 ± 0.041,0.339 ± 0.042,0.348 ± 0.043,0.353 ± 0.043
CCCC(=O)OC [methyl butanoate] + CCCC[N+]1(C)CCCC1.N#CN=C=[N-],2.92 ± 0.31,3 ± 0.32,3.16 ± 0.33,3.25 ± 0.34,3.34 ± 0.35
CCC(=O)OC [methyl propanoate] + CCCC[N+]1(C)CCCC1.N#CN=C=[N-],2.07 ± 0.22,2.09 ± 0.22,2.22 ± 0.23,2.33 ± 0.24,2.4 ± 0.25
CCCCCCCCC [nonane] + CCCC[N+]1(C)CCCC1.N#CN=C=[N-],172 ± 18,154 ± 16,133 ± 14,120 ± 13,114 ± 12
C=CCCCCCC [oct-1-ene] + CCCC[N+]1(C)CCCC1.N#CN=C=[N-],47.8 ± 5,46.3 ± 4.9,42.8 ± 4.5,40.3 ± 4.2,39 ± 4.1
CCCCCCCC [octane] + CCCC[N+]1(C)CCCC1.N#CN=C=[N-],119 ± 13,111 ± 12,96 ± 10,86 ± 9.1,81 ± 8.5
CCCC(C)=O [pentan-2-one] + CCCC[N+]1(C)CCCC1.N#CN=C=[N-],1.73 ± 0.18,1.79 ± 0.19,1.89 ± 0.2,1.96 ± 0.21,2.02 ± 0.21
CCC(=O)CC [pentan-3-one] + CCCC[N+]1(C)CCCC1.N#CN=C=[N-],1.7 ± 0.18,1.76 ± 0.18,1.9 ± 0.2,1.99 ± 0.21,2.04 ± 0.21
CCCO [propan-1-ol] + CCCC[N+]1(C)CCCC1.N#CN=C=[N-],0.649 ± 0.068,0.645 ± 0.068,0.648 ± 0.068,0.665 ± 0.07,0.638 ± 0.067
CC(C)O [propan-2-ol] + CCCC[N+]1(C)CCCC1.N#CN=C=[N-],0.744 ± 0.077,0.719 ± 0.075,0.714 ± 0.074,0.711 ± 0.074,0.696 ± 0.073
CCC=O [propanal] + CCCC[N+]1(C)CCCC1.N#CN=C=[N-],1.04 ± 0.11,1.05 ± 0.11,1.1 ± 0.1,1.16 ± 0.12,1.21 ± 0.12
c1ccncc1 [pyridine] + CCCC[N+]1(C)CCCC1.N#CN=C=[N-],1.02 ± 0.1,1.05 ± 0.11,1.07 ± 0.11,1.11 ± 0.11,1.13 ± 0.12
